Consider twelve compounds from patent US7465741B2, “C-substituted tricyclic isoxazoline derivatives and their use as anti-depressants” (Janssen Pharmaceutica N.V., priority 2002, dated 2008).

SMILES strings stand for the structures.

The target of one assay is T1, hα2A receptor (Homo sapiens, UniProt P08913).
T1 construct: expressed in transfected cells; host or cells: CHO cells
T1 sequence (P08913 1-465): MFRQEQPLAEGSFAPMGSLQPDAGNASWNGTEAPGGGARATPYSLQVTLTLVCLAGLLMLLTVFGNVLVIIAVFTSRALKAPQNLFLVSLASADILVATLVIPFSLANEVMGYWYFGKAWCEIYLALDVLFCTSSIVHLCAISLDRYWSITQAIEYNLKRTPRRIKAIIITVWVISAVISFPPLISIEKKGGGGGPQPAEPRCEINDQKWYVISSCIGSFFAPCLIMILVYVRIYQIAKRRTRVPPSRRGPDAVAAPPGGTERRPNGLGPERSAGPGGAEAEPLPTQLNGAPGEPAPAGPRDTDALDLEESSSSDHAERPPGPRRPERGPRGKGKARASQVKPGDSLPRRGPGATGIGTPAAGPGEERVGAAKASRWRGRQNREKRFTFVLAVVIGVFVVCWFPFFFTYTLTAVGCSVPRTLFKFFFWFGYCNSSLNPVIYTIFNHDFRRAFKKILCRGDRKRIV
Nature of the assay: Radioligand binding experiment for hα2A receptor ([3H]-raulwolscine, CHO cell membranes). The settings on record: [3H]-raulwolscine 1 nM, membranes of CHO cells transfected with human α2A receptor; read-out: pIC50 hα2A (converted). Here is the method:
(§1) The interaction of the compounds according to Formula (I) with hα2-receptors and h5-HT-transporters was assessed in in vitro radioligand binding experiments. In general, a low concentration of a radioligand with a high binding affinity for a particular receptor or transporter is incubated with a sample of a tissue preparation enriched in a particular receptor or transporter or with a preparation of cells expressing cloned human receptors in a buffered medium. During the incubation, the radioligand binds to the receptor or transporter. When equilibrium of binding is reached, the receptor bound radioactivity is separated from the non-bound radioactivity, and the receptor- or transporter-bound activity is counted. The interaction of the test compounds with the receptor is assessed in competition binding experiments. Various concentrations of the test compound are added to the incubation mixture containing the receptor- or transporter preparation and the radioligand. The test compound in proportion to its binding affinity and its concentration inhibits binding of the radioligand. The radioligand used for hα2A, hα2B and hα2C receptor binding was [^3H]-raulwolscine and for the h5-HT transporter was [^3H]paroxetine.
(§2) CHO cells, stabile transfected with human adrenergic-α2A-, —α2B or α2C receptor cDNA, were cultured in Dulbecco's Modified Eagle's Medium (DMEM)/Nutrient mixture Ham's F12 (ratio 1:1)(Gibco, Gent-Belgium) supplemented with 10% heat inactivated fetal calf serum (Life Technologies, Merelbeke-Belgium) and antibiotics (100 IU/ml penicillin G, 100 μg/ml streptomycin sulphate, 110 μg/ml pyruvic acid and 100 μg/ml L-glutamine). One day before collection, cells were induced with 5 mM sodiumbutyrate. Upon 80-90% of confluence, cells were scraped in phosphate buffered saline without Ca^2+ and Mg^2+ and collected by centrifugation at 1500×g for 10 min. The cells were homogenised in Tris-HCl 50 mM using an Ultraturrax homogenizer and centrifuged for 10 min at 23,500×g. The pellet was washed once by resuspension and rehomogenization and the final pellet was resuspended in Tris-HCl, divided in 1 ml aliquots and stored at −70° C.
(§3) Membranes were thawed and re-homogenized in incubation buffer (glycylglycine 25 mM, pH 8.0). In a total volume of 500 μl, 2-10 μg protein was incubated with [^3H]raulwolscine (NET-722) (New England Nuclear, USA) (1 nM final concentration) with or without competitor for 60 min at 25° C. followed by rapid filtration over GF/B filter using a Filtermate196 harvester (Packard, Meriden, Conn.). Filters were rinsed extensively with ice-cold rinsing buffer (Tris-HCl 50 mM pH 7.4). Filter-bound radioactivity was determined by scintillation counting in a Topcount (Packard, Meriden, Conn.) and results were expressed as counts per minute (cpm). Non-specific binding was determined in the presence of 1 μM oxymetazoline for hα2A- and hα2B receptors and 1 μM spiroxatrine for hα2C receptors.
(§4) Data from assays in the presence of compound were calculated as a percentage of total binding measured in the absence of test compound. Inhibition curves, plotting percent of total binding versus the log value of the concentration of the test compound, were automatically generated, and sigmoidal inhibition curves were fitted using non-linear regression. The pIC50 values of test compounds were derived from individual curves.

The target in a further assay is T2, hα2B receptor (Homo sapiens, UniProt P18089).
T2 construct: expressed in transfected cells; host or cells: CHO cells
T2 sequence (P18089 1-450): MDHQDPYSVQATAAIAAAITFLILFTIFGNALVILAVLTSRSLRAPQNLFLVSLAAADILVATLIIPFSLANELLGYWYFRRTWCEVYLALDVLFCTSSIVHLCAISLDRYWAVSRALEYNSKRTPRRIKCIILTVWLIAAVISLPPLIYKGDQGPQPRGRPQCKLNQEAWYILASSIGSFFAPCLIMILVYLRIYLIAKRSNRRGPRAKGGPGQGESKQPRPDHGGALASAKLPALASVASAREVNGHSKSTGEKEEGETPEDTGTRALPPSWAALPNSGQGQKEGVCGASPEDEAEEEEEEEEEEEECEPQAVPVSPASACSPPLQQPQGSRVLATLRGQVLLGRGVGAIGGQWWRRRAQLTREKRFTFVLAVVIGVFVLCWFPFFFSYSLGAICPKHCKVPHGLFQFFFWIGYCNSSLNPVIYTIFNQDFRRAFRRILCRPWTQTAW
The experiment in a line: Radioligand binding experiment for hα2B receptor ([3H]-raulwolscine, CHO cell membranes). The settings on record: [3H]-raulwolscine 1 nM, membranes of CHO cells transfected with human α2B receptor; read-out: pIC50 hα2B (converted). Here is the method: as §1, §2, §3, §4

In another assay the target is T3, hα2C receptor (Homo sapiens, UniProt P18825).
T3 construct: expressed in transfected cells; host or cells: CHO cells
T3 sequence (P18825 1-462): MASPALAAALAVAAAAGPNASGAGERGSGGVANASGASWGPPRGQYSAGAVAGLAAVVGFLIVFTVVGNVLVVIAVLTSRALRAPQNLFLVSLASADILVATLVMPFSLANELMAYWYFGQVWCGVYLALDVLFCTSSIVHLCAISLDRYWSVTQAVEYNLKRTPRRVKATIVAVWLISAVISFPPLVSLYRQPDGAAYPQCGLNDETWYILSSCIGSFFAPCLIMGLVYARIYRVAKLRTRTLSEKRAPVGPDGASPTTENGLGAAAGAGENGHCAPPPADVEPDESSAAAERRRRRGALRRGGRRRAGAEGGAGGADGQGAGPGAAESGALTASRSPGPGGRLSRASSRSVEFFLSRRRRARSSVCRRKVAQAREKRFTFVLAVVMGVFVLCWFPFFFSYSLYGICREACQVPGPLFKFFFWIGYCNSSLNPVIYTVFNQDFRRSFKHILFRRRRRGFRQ
Nature of the assay: Radioligand binding experiment for hα2C receptor ([3H]-raulwolscine, CHO cell membranes). The settings on record: [3H]-raulwolscine 1 nM, membranes of CHO cells transfected with human α2C receptor; read-out: pIC50 hα2C (converted). Here is the method:
as §1, §2, §3, §4

For another assay, the target named is T4, h5-HT transporter (Homo sapiens, UniProt P31645).
T4 construct: Human platelet membranes (Oceanix Biosciences Corporation, Hanover, Md., USA) were thawed; tissue Oceanix Biosciences Corporation; host or cells: human platelet membranes
T4 sequence (P31645 whole entry): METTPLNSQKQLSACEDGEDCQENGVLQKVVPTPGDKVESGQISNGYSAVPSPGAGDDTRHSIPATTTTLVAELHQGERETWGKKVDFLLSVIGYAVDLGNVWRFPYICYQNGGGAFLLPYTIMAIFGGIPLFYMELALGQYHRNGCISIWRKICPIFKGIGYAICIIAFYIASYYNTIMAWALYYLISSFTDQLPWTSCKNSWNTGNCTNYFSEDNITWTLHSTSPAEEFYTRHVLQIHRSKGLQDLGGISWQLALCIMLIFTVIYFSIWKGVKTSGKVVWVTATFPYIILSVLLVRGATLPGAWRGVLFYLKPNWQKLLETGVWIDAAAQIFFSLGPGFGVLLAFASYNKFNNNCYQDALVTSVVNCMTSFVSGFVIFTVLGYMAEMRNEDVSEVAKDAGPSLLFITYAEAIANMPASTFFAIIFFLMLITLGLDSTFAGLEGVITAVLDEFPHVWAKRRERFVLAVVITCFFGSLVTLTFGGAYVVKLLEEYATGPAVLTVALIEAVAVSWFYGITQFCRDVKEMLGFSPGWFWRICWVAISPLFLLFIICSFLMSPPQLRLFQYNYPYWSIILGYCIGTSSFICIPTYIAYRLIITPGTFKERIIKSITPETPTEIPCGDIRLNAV
Nature of the assay: Radioligand binding experiment for 5-HT transporter ([3H]paroxetine, human platelet membranes). To be noted: [3H]paroxetine 0.5 nM, read-out: pIC50 h5HTT (converted). Here is the method: as §1
Human platelet membranes (Oceanix Biosciences Corporation, Hanover, Md., USA) were thawed, diluted in buffer (Tris-HCl 50 mM, 120 mM NaCl and 5 mM KCl) and quickly (max 3 s) homogenised with an Ultraturrax homogenizer. In a total volume of 250 μL, 50-100 μg protein was incubated with [^3H]paroxetine (NET-869) (New England Nuclear, USA) (0.5 nM final concentration) with or without competitor for 60 min at 25° C. Incubation was stopped by rapid filtration of the incubation mixture over GF/B filters, pre-wetted with 0.1% polyethyleneamine, using a Filtermate 196 harvester (Packard, Meriden, Conn.). Filters were rinsed extensively with ice-cold buffer and radioactivity on the filters was counted in a Topcount liquid scintillation counter (Packard, Meriden, Conn.). Data were expressed as cpm. Imipramine (at 1 μM final concentration) was used to determine the non-specific binding.
as §4

For the compound `Cc1ccc2c(c1)C1=NOC(CN3CCN(CC=Cc4ccccc4)CC3)C1CO2` (stereo not drawn) [Compound 1, 8-Methyl-3-[4-(3-phenyl-allyl)-piperazin-1-ylmethyl]-3a,4-dihydro-3H-chromeno[4,3-c]isoxazole], the IC50 on hα2A receptor was 3.98 nM; on hα2B receptor, 10 nM; at hα2C receptor it was 15.8 nM; at h5-HT transporter, 39.8 nM.

`COc1cc2c(cc1C)OCC1C2=NOC1CN1CCN(C/C(C)=C/c2ccccc2)CC1` (stereo not drawn) [Compound 2, 8-Methoxy-7-methyl-3-[4-(2-methyl-3-phenyl-allyl)-piperazin-1-ylmethyl]-3a,4-dihydro-3H-chromeno[4,3-c]isoxazole]: the values for the IC50 on hα2A receptor, at hα2C receptor and on h5-HT transporter were 2 nM, 1.58 nM and 20 nM, respectively.

In the case of `COc1cc2c(cc1CO)OCC1C2=NOC1CN1CCN(C/C(C)=C/c2ccccc2)CC1` (stereo not drawn) [Compound 4, {8-Methoxy-3-[4-(2-methyl-3-phenyl-allyl)-piperazin-1-ylmethyl]-3a,4-dihydro-3H-chromeno[4,3-c]isoxazol-7-yl}-methanol], the IC50 on hα2A receptor was 3.98 nM; on hα2C receptor, 1.58 nM; on h5-HT transporter, 100 nM.

With `COCc1ccc2c(c1)OCC1C2=NOC1CN1CCN(CC(C)=Cc2ccccc2)CC1` (stereo not drawn) [Compound 5, 7-Methoxymethyl-3-[4-(2-methyl-3-phenyl-allyl)-piperazin-1-ylmethyl]-3a,4-dihydro-3H-chromeno[4,3-c]isoxazole], the IC50 was 3.16 nM on hα2A receptor, 2.51 nM on hα2B receptor, 0.794 nM on hα2C receptor and 158 nM at h5-HT transporter.

As to `COc1cc2c(cc1COC(C)=O)OCC1C2=NOC1CN1CCN(C/C(C)=C/c2ccccc2)CC1` (stereo not drawn) [Compound 7, Acetic acid 8-methoxy-3-[4-(2-methyl-3-phenyl-allyl)-piperazin-1-ylmethyl]-3a,4-dihydro-3H-chromeno[4,3-c]isoxazol-7-ylmethyl ester], the IC50 on hα2A receptor was 3.98 nM; on hα2C receptor, 1.26 nM; on h5-HT transporter it was 12.6 nM.

Regarding `COc1cc2c(cc1COc1ccccc1)OCC1C2=NOC1CN1CCN(C/C(C)=C/c2ccccc2)CC1` (stereo not drawn) [Compound 8, 8-Methoxy-3-[4-(2-methyl-3-phenyl-allyl)-piperazin-1-ylmethyl]-7-phenoxymethyl-3a,4-dihydro-3H-chromeno[4,3-c]isoxazole], the IC50 on hα2A receptor is 25.1 nM; on hα2C receptor, 20 nM; on h5-HT transporter, 200 nM.

`C/C(=C\c1ccccc1)CN1CCN(CC2ON=C3c4ccc(/C=N\O)cc4OCC32)CC1` (stereo not drawn) [Compound 11, 3-[4-(2-Methyl-3-phenyl-allyl)-piperazin-1-ylmethyl]-3a,4-dihydro-3H -chromeno[4,3-c]isoxazole-7-carbaldehyde oxime]: the IC50 on hα2A receptor was 5.01 nM; at hα2C receptor, 1.58 nM; at h5-HT transporter, 5.01 nM.

In the case of `CON=Cc1ccc2c(c1)OCC1C2=NOC1CN1CCN(CC(C)=Cc2ccccc2)CC1` (stereo not drawn) [Compound 12, 3-[4-(2-Methyl-3-phenyl-allyl)-piperazin-1-ylmethyl]-3a,4-dihydro-3H -chromeno[4,3-c]isoxazole-7-carbaldehyde O-methyl-oxime], the IC50 at hα2A receptor is 6.31 nM; at hα2C receptor, 3.98 nM; at h5-HT transporter, 100 nM.

As for `CC(=O)NCc1ccc2c(c1)OCC1C2=NOC1CN1CCN(C/C(C)=C/c2ccccc2)CC1` (stereo not drawn) [Compound 15, N-{3-[4-(2-Methyl-3-phenyl-allyl)-piperazin-1-ylmethyl]-3a,4-dihydro-3H -chromeno[4,3-c]isoxazol-7-ylmethyl}-acetamide], the IC50 at hα2A receptor is 5.01 nM; at hα2C receptor, 0.794 nM.

Turning to `CCNC(=O)c1cc2c(cc1OC)C1=NOC(CN3CCN(C/C(C)=C/c4ccccc4)CC3)C1CO2` (stereo not drawn) [Compound 16, 8-Methoxy-3-[4-(2-methyl-3-phenyl-allyl)-piperazin-1-ylmethyl]-3a,4-dihydro-3H -chromeno[4,3-c]isoxazole-7-carboxylic acid ethylamide], the IC50 at hα2A receptor is 3.16 nM; at hα2C receptor, 1.58 nM; on h5-HT transporter, 126 nM.

Regarding `COc1cc2c(cc1-c1ccccc1)OCC1C2=NOC1CN1CCN(C/C(C)=C/c2ccccc2)CC1` (stereo not drawn) [Compound 17, 8-Methoxy-3-[4-(2-methyl-3-phenyl-allyl)-piperazin-1-ylmethyl]-7-phenyl-3a,4-dihydro-3H-chromeno[4,3-c]isoxazole], the IC50 at hα2A receptor is 15.8 nM; on hα2C receptor, 12.6 nM; at h5-HT transporter, 158 nM.

Consider `C/C(=C\c1ccccc1)CN1CCN(CC2ON=C3c4ccc(C=O)cc4OCC32)CC1` (stereo not drawn) [Compound 19], for which the IC50 is 5.01 nM at hα2A receptor and 0.794 nM at hα2C receptor.
